One data set deals with Bacilius subtilis. The following applies: cited from earlier work.
A further data set relates to Fungus. To be noted: cited from earlier work.
The test system of the next data set is E.coli. The following applies: cited from earlier work.
In a further data set the test system is S.aureus. To be noted: cited from earlier work.
For a further data set, the system named is P.aeruginosa. To be noted: cited from earlier work.
Data set [1] concerns gram-negative bacteria, mostly E.coli and P. aeruginosa. To be noted: range stated jointly; ref Table 5.0 ([28], [30]–[32]); cited from earlier work.
The subject of another data set is sheep erythrocytes. The data set can be described thus: Hemolysis assay. It counts as cell-based. To be noted: sheep erythrocytes in PBS, 37°C 18–24 hours, absorbance 567 nm.
For another data set, the system named is R. solani Khun. The following applies: against R. solani Khun; ref [34]; cited from earlier work.

Like-named read-outs stand apart in the source and are kept apart here. Where no end group is shown, it is not given here.

On to Bactrocerin-1, for which the “MIC values Bacilius subtilis” value with Bacilius subtilis (ref [37]) was 13.0 µg/mL. The “MIC values Fungus” value in the data set on Fungus (ref [37]) is 26.0 to 104.7 µg/mL. In addition, the “MIC values E.coli” value in the data set on E.coli (ref [37]) is greater than 232.5 µg/mL. Besides, the “MIC values S.aureus” value in the data set on S.aureus (ref [37]) is 6.5 µg/mL.
“Cecropin B (KWKVFKKIEKMGRNIRNGIVKAGPAIAVLGEAKAL; ends and bridges not checked; UniProt P01508 27-61, looked up)”: the entries for the “MIC values P.aeruginosa” value in the data set on P.aeruginosa (ref [28]) and with P.aeruginosa (ref [30]) were 2.5 µg/mL and greater than 100 µg/mL, respectively. The “MIC values E.coli” value was 2.5 µg/mL with E.coli (ref [28]), 2 µg/mL in the data set with E.coli (ref [30]) and 16 µg/mL in the data set with E.coli (ref [31]). For the same molecule, the “MIC values S.aureus” value in the data set on S.aureus (ref [31]) was greater than 128 µg/mL. Further, in data set [1], the “MIC range against different strains of gram-negative bacteria” value (“MIC range against different strains” below) was 2 to 20 µg/mL.
For the molecule “Cecropin A (KWKLFKKIEKVGQNIRDGIIKAGPAVAVVGQATQIAK; ends and bridges not checked; UniProt P01507 27-63, looked up)”, in the data set on P.aeruginosa (ref [28]), the “MIC values P.aeruginosa” value is 2.5 µg/mL. The “MIC values E.coli” value in the data set on E.coli (ref [28]) is 2.5 µg/mL. Besides, in data set [1], the “MIC range against different strains” value is 2 to 20 µg/mL.
Take Galleria defensin: the “MIC values Fungus” value in the data set with Fungus (ref [38]) is 14.7 to 29.5 µg/mL.
On to `CC[C@H](C)[C@H](NC(=O)CN)C(=O)NCC(=O)N[C@@H](C)C(=O)N[C@H](C(=O)N[C@@H](CC(C)C)C(=O)N[C@@H](CCCCN)C(=O)N[C@H](C(=O)N[C@@H](CC(C)C)C(=O)N[C@H](C(=O)N[C@H](C(=O)NCC(=O)N[C@@H](CC(C)C)C(=O)N1CCC[C@H]1C(=O)N[C@@H](C)C(=O)N[C@@H](CC(C)C)C(=O)N[C@H](C(=O)N[C@@H](CO)C(=O)N[C@@H](Cc1c[nH]c2ccccc12)C(=O)N[C@H](C(=O)N[C@@H](CCCCN)C(=O)N[C@@H](CCCNC(=N)N)C(=O)N[C@@H](CCCCN)C(=O)N[C@@H](CCCNC(=N)N)C(=O)N[C@@H](CCC(N)=O)C(=O)N[C@@H](CCC(N)=O)C(N)=O)[C@@H](C)CC)[C@@H](C)CC)[C@@H](C)O)[C@@H](C)O)C(C)C)C(C)C` [Melittin], for which the “concentration at which RBCs are lysed” value in the data set on sheep erythrocytes is no less than 12500 ng/mL.
For Sapecin, the “MIC values Bacilius subtilis” value in the data set with Bacilius subtilis (ref [36]) was 20 to 39 µg/mL. The “MIC values E.coli” value in the data set with E.coli (ref [36]) was greater than 78.0 µg/mL. Moreover, the “MIC values S.aureus” value with S.aureus (ref [36]) is 5.0 µg/mL.
On to Cecropin P1, for which, in the data set on P.aeruginosa (ref [32]), the “MIC values P.aeruginosa” value is 4 to 64 µg/mL. The “MIC values E.coli” value in the data set with E.coli (ref [32]) is 0.12 to 4 µg/mL. Also, in data set [1], the “MIC range against different strains” value is 2 to 20 µg/mL.
In the case of Oh-defensin, the “MIC values Fungus” value with Fungus (ref [39]) is 1.3 µg/mL. For the same molecule, the “MIC values E.coli” value in the data set on E.coli (ref [39]) was 1.3 µg/mL. In the data set with S.aureus (ref [39]), the “MIC values S.aureus” value is 1.25 µg/mL.
For the molecule Trx-stomoxynZH1, the “MIC values Fungus” value with R. solani Khun is reported as > 98 against R. solani Khun μg/ml. Moreover, the “MIC values E.coli” value in the data set with E.coli (ref [34]) was 15 to 30 µg/mL. Besides, in the data set with S.aureus (ref [34]), the “MIC values S.aureus” value was 27 to 54 µg/mL.

(Values after publication PMC5913751 (Peptides, 2018).)
